Legend:
Format in all cases: cell-based, Mouse
[1] = tested on: C2C12 myoblasts; test: C2C12 myoblast differentiation, fusion index by cytoimmunofluorescence; settings: 5 days in differentiation medium
Experimental: (§1) Mouse myoblasts of the C2C12 cell line (ATCC) were seeded at a plating density of 7000 cells/cm2 in 6-well plates. They were grown in DMEM high glucose (4.5g/l) supplemented with gentamycin (50 µg/mL), amphotericin (50 µg/mL), and fetal calf serum (10%). Terminal differentiation was induced at cell confluence by lowering the medium serum concentration (0.5%).
(§2) When indicated, FuFA-F2 was added to the culture medium at the indicated concentration. For the differentiation studies, FuFA-F2 was added at the confluence at the same time as the change in media condition. Three doses of FuFA-F2 were studied at a final concentration of 1, 10, or 50 µM. Human insulin was used at a concentration of 100 nM.
Cytoimmunofluorescence myoblast differentiation was assessed by observation of morphological changes and accumulation of muscle-specific markers. After methanol fixation and three washes with PBS-gelatin (0.2%), cells were labeled with an antibody raised against Troponin T (T6277, Sigma, diluted at 1:50) (Sigma-Aldrich, Saint-Quentin Fallavier, France). Nuclei were stained with Hoechst 33258 (1 µg/mL). To assess the extent of differentiation, the fusion index (percentage of nuclei incorporated into myotubes relative to the total number of nuclei) was calculated 120 h after adding the differentiation medium. Nuclei were counted on 10 images/dish using ImageJ software. […]

[2] = tested on: myogenin; test: Myogenin protein level by Western blot in differentiating C2C12 cells; settings: 1, 10 and 50 µM, differentiation medium
Experimental: as §1, §2
Protein levels were assessed by Western blotting. Total proteins were measured using the Bio-Rad protein assay (Hercules, CA, USA) according to the manufacturer's instructions. Total proteins were lysed in RIPA buffer (20mM Tris, 150mM NaCl, 1mM EDTA, 1% NP40, pH 7.5 + complete cocktail protease inhibitors + Pierce phosphatase inhibitors tablet). 40 µg of cell extracts were loaded and blotted onto a nitrocellulose membrane. The membranes were washed, blocked with 5% nonfat milk and incubated in primary antibody overnight at 4°C. […]

[3] = tested on: mTOR (Ser2448); test: mTOR phosphorylation by Western blot in C2C12 myotubes
Experimental: as §1, §2
Protein levels were assessed by Western blotting. Total proteins were measured using the Bio-Rad protein assay (Hercules, CA, USA) according to the manufacturer's instructions. Total proteins were lysed in RIPA buffer (20mM Tris, 150mM NaCl, 1mM EDTA, 1% NP40, pH 7.5 + complete cocktail protease inhibitors + Pierce phosphatase inhibitors tablet). 40 µg of cell extracts were loaded and blotted onto a nitrocellulose membrane. The membranes were washed, blocked with 5% nonfat milk and incubated in primary antibody overnight at 4°C. The membranes were then washed in TBS-Tween (10mM Tris, 140mM NaCl, and 0.2% Tween-20), incubated with the appropriate secondary antibody coupled to horseradish peroxidase, and washed again in TBS-Tween. […] Touch Software (version 5.2.1) (Hercules, CA, USA). […]
It is shown that FuFA-F2 increased protein accretion in myotubes. Protein homeostasis is determined by the dynamic balance between protein synthesis and degradation. Protein synthesis was evaluated by measuring the phosphorylation of Akt (Ser473), mTOR (Ser2448) and 4E-BP1 (Thr37/46), which are major regulators of translation and protein synthesis. […]

For CCCCCc1cc(C)c(CCCCCCCCC(=O)O)o1 [FuFA-F2], the myoblast fusion index ([1]; 50 µM, 57% for control, p<0.05) was 61%, the myoblast fusion index ([1]; 1 and 10 µM (all doses except 50 µM)) was “no significant effects” and the expression of myogenin [2] was “no effect”. The “mTOR phosphorylation at Ser2448” value ([3]; 3-day pretreatment, 2 hours low-glucose medium, then treatment for 30 minutes, insulin alone 100 nM) was “significant increase”, the mTOR phosphorylation ([3]; high glucose medium, 3 days, with or without FuFA-F2) was “no difference” and the “rapid effect on mTOR phosphorylation” value ([3]; without pretreatment, 30 min incubation after low-glucose medium) was “not observed”.
